# Measurements from patent US9493833B1, “Methods for preventing induced synthesis of proteasomes in human cells” (THE REGENTS OF THE UNIVERSITY OF CALIFORNIA, priority 2009, dated 2016).
# Where a SMILES comes first, the peptide text is derived from it. The star is where a group is joined. Cbz = O=C(OCc1ccccc1)*; CH2F = FC*
# Legend:
# [1] = tested on: NQO1; assay: NQO1 mRNA level by quantitative RT-PCR in LNCaP and HT-29 cells; assay type: cell-based, human; conditions: 10 hrs, same treatment conditions
# Experimental: (§1) The human prostate cancer LNCaP and colon cancer HT29 cell lines were incubated with different proteasome inhibitors (MG132, YU101, and bortezomib) or the Nedd8 pathway inhibitor MLN4924 (Soucy et al., 2009, Nature, 458, 732-736). Prostate cancer LNCaP and colon cancer HT-29 cells were treated with the indicated concentrations of proteasome inhibitors (MG132, YU101, and Bortezomib) or the Nedd8 pathway inhibitor (MLN4924) for 10 hrs, and mRNA levels of representative PSM genes were analyzed by quantitative RT-PCR (FIGS. 1A-1C). The values were normalized to GAPDH and for each cell line the DMSO treated sample was set to 1. Error bars denote SD (n=3). […] MLN4924 works by inhibiting the Nedd8-activating enzyme, the result of which is the accumulation of cullin-RING ligase (CRL) substrates (Soucy et al., 2009).
# (§2) RNA was isolated using the RNeasy kit (Qiagen). cDNA was prepared using the Superscript III first strand synthesis kit (Invitrogen) according to the manufacturer's recommendations. Quantitative PCR (qPCR) was performed using the SYBR GreenER supermix (Invitrogen).
# [2] = tested on: PSM genes (PSMA7, PSMB4, PSMB7, PSMC1, PSMC4, PSMD1, PSMD12); assay: mRNA levels of representative PSM genes by quantitative RT-PCR in LNCaP and HT-29 cells treated with proteasome inhibitors or MLN4924; assay type: cell-based, human; conditions: 10 hrs, normalized to GAPDH, DMSO set to 1
# Experimental: as §1, §2
# [3] = tested on: anti-oxidant response elements (8×AREs); assay: 8×ARE-SV40-Luc luciferase reporter assay in LNCaP cells; assay type: cell-based, human; conditions: MG132 alone versus untreated cells
# Experimental: TSA and SAHA were assayed using a luciferase reporter construct. The luciferase reporter was driven by a promoter harboring multimerized anti-oxidant response elements (8×AREs) and was transfected into LNCaP cells.
# LNCaP cells were subjected to treatment with one of MG132 (1 μM), TSA (1 μM), SAHA (5 μM), MG132 (1 μM)+TSA (1 μM), or MG132 (1 μM)+SAHA (1 μM) for 10 hrs and the RNA from these cells was used for quantitative RT-PCR to assess the mRNA levels of representative PSM genes (FIG. 5A). The values were normalized to GAPDH and the DMSO-treated sample was set to 1. A representative experiment performed in duplicates is shown. MDA-MB-231 cells were treated with different agents at the same concentrations as above (except MG132 which was used at 5 μM) for 48 hrs after which the cells were used for cell-titer glo assay to assess cell viability. Data from an experiment performed in quadruplicates is shown (FIG. 5B). LNCaP cells transfected with 8×ARE-SV40-Luc construct alone (control) or co-transfected with Flag-Nrf1 were further treated with different agents as indicated (FIG. 10). pRL-TK renilla luciferase expression construct was used as a transfection control for normalization. Sixteen hours later, the cells were harvested and used for Luciferase assay.
# (§3) Cells were transiently transfected with the firefly (promoter reporters) and renilla luciferase (pRL-TK; Promega) constructs along with effector plasmid as required. After harvesting the cells, luciferase assays were performed using the Dual Luciferase reporter assay system (E1910; Promega) according to the instructions from the manufacturer. The firefly luciferase activity was normalized to renilla luciferase activity for all experiments.
# [4] = tested on: murine PSMB6 promoter; assay: PSMB6-Luc promoter-reporter luciferase assay in MEFs; assay type: cell-based, mouse; conditions: WT MEFs, MG132 12 hrs
# Experimental: (§4) Sequence alignment of the genomic region close to the transcription start site (indicated by +1) of the PSMB6 gene in mouse and human. The putative ARE sequences and the start codon are marked as shown (FIG. 6). WT and Nrf1^−/− MEFs were transfected with the PSMB6-Luc construct and 24 hrs post-transfection, the cells were treated with the indicated concentration of MG132 for 12 hrs after which luciferase assays were performed as described herein (FIG. 7). Error bars denote SD (n=3). […] LNCaP cells were transiently transfected with the indicated reporter constructs along with either a vector control or Flag-Nrf1 expression construct. Forty-eight hours (hrs) after transfection, the cells were further incubated with the indicated concentration of MG132 for 12 hrs after which luciferase assays were performed as described herein (FIG. 9). Error bars denote SD (n=3).
# as §3
# [5] = target: T1, proteasome (chymotryptic site) (Homo sapiens, UniProt P20618+P28074); assay: Proteasome activity recovery assay in HT29 cells after drug wash-out; assay type: cell-based; conditions: HT-29, read-out: inhibition of the chymotryptic site
# T1 construct: endogenous in cells; host or cells: HT29 human colon cancer cells, treated intact; activity measured in freeze-thaw lysate
# Experimental: (§5) Cells were frozen at different time points as indicated and were used for proteasome activity assays as described herein. For each time point, the results are normalized to DMSO-treated control in the case of hatched lines and to CHX-treated control in the case of solid lines. Error bars denote SD (n=3). […] The results were normalized to DMSO-treated control for each cell type. Error bars denote S.E.M. (n=2). […] The next day, the cells were treated with indicated concentrations of YU101 and the pan-caspase inhibitor Z-VAD-FMK, and further incubated for 72 hrs. The cell viability was then assessed using the CellTiter-Glo method (FIG. 12A). The results were normalized to DMSO-treated control which was set to 100% in each case. Error bars denote S.E.M. (n=2). […] The cell lysates were used for immunoblotting to detect the levels of Nrf1 (with the antibody raised against N-terminus) and cleaved caspase-3. β-actin protein levels were used as loading control. […] The cells were then washed with PBS thrice and allowed to recover in fresh medium. At definite time points, the cells were freeze-thawed in TE buffer (20 mM Tris pH 8, 5 mM EDTA) and subsequently used for measuring proteasome activity as described previously (Demo et al., 2007).
# [6] = tested on: PSM genes; assay: mRNA levels of representative PSM genes by quantitative RT-PCR in MEFs (WT, Nrf1−/−, Nrf2−/−; retroviral transduction); assay type: cell-based, mouse; conditions: 10 hrs
# Experimental: Specifically, MEFs of different genotypes (WT, Nrf1^−/−, and Nrf2^−/−) were treated for 10 hrs with MG132 as indicated (FIG. 2A), and the cell lysates were used for immunoblotting to detect protein levels of Nrf1 (with the antibody raised against the N-terminus) and Nrf2. β-actin protein levels were used as loading control. RNA from MEFs under the same treatment conditions as above was used for quantitative RT-PCR to assess the mRNA levels of representative PSM genes (FIGS. 2B-2C), The values were normalized to GAPDH and the DMSO treated WT sample was set to 1. Error bars denote SD (n=3).
# Nrf1^−/− MEFs were transduced with retrovirus expressing one of Flag-Nrf1, Flag-Nrf1-HA or vector control and 72 hrs later treated with MG132 for 10 hrs as indicated. The cell lysates were used for immunoblotting to detect the levels of exogenous Nrf1 by using tag-specific antibodies (FIG. 3A). β-actin protein levels were used as loading control. RNA from Nrf1^−/− MEFs under the same viral transduction and treatment conditions as above was used for quantitative RT-PCR to assess the mRNA levels of representative PSM genes (FIG. 3B). The values were normalized to GAPDH and the vector-transduced DMSO-treated sample was set to 1. Error bars denote SD (n=3).
# WT and Nrf1^−/− MEFs were transduced with retrovirus expressing sh-Nrf1 or vector control and 72 hrs later treated with MG132 for 10 hrs as indicated. […] RNA from MEFs under the same viral transduction and treatment conditions as above was used for quantitative RT-PCR to assess the mRNA levels of representative PSM genes (FIG. 4B). […]
# as §2
# [7] = tested on: PSMA4 ARE; assay: 3×PSMA4-ARE-Luc / 3×PSMA4-mutARE-Luc luciferase assay in LNCaP cells; assay type: cell-based, human
# Experimental: as §4, §3
# [8] = target: T2, proteasome (Mus musculus, UniProt O09061+O55234); assay: Proteasome activity recovery assay in WT and Nrf1−/− MEFs; assay type: cell-based; conditions: YU101 300 nM 1 hr then wash-off, single-phase exponential curve fit
# T2 construct: endogenous in cells; host or cells: WT and Nrf1-/- mouse embryonic fibroblasts, immortalized with shRNA against p19ARF
# Experimental: as §5
# [9] = tested on: cleaved caspase-3; assay: Immunoblot of cleaved caspase-3 in MDA-MB-231 and U2OS cells; assay type: cell-based, human; conditions: Nrf1-depleted cells; YU101 48 hrs (MDA-MB-231) or 24 hrs (U2OS)
# Experimental: (§6) HT29 cells were treated with either MG132 (2 μM), YU101 (100 nM) or Bortezomib (40 nM) for 1 hr after which the drugs were washed off and the cells were allowed to recover in the absence or presence of 50 μg/ml cycloheximide (CHX) (FIG. 11A). Cells were frozen at different time points as indicated and were used for proteasome activity assays as described herein. For each time point, the results are normalized to DMSO-treated control in the case of hatched lines and to CHX-treated control in the case of solid lines. Error bars denote SD (n=3). WT and Nrf1^−/− MEFs were treated with either MG132 (50 μM) or YU101 (300 nM) for an hour after which the drugs were washed off and proteasome activity was measured for cells collected at different time points as indicated (FIG. 11A). […] The results were normalized to DMSO-treated control for each cell type. Error bars denote S.E.M. (n=2). MDA-MB-231 and U2OS cells were transduced with retrovirus expressing either sh-Nrf1 or vector control, and 48 hrs later were seeded in to 96-well plates. The next day, the cells were treated with indicated concentrations of YU101 and the pan-caspase inhibitor Z-VAD-FMK, and further incubated for 72 hrs. The cell viability was then assessed using the CellTiter-Glo method (FIG. 12A). The results were normalized to DMSO-treated control which was set to 100% in each case. Error bars denote S.E.M. (n=2). […]
# [10] = tested on: MDA-MB-231 and U2OS cells; assay: CellTiter-Glo cell viability with YU101, sh-Nrf1 and Z-VAD-FMK; assay type: cell-based, human; conditions: 72 hrs
# Experimental: as §6, with “MDA-MB-231 and U2OS cells were transduced with retrovirus expressing either sh-Nrf1 or vector control, and 48 hrs later were seeded in to 96-well plates. The next day, the cells were treated with indicated concentrations of YU101 and the pan-caspase inhibitor Z-VAD-FMK, and further incubated for 72 hrs.” left out, “12A).” for “12A). The results were normalized to DMSO-treated control which was set to 100% in each case. Error bars denote S.E.M. (n=2).”
# Cells in 96-well plates were treated with different agents as required and cell viability was assessed using the Cell-Titer Glo kit (G7572; Promega) according to the protocol recommended by the manufacturer. By employing a luminescence read-out, this kit quantifies the level of ATP which is proportional to the number of viable cells.
smiles,measurement,setting,value
NS(=O)(=O)OC[C@@H]1C[C@@H](n2ccc3c(N[C@H]4CCc5ccccc54)ncnc32)C[C@@H]1O [MLN4924],NQO1 mRNA (Nrf2 target gene),[1],"activation of its downstream target genes, as observed for NQO1"
same,mRNA levels of PSM genes,[2],failed to appreciably induce the PSM genes
CC(C)C[C@@H](C=O)NC(=O)[C@H](CC(C)C)NC(=O)[C@H](CC(C)C)NC(=O)OCc1ccccc1 [MG132] (Cbz-Leu-Leu-Leu-aldehyde),luciferase expression (8×ARE reporter),[3],luciferase expression was increased compared to non-test (untreated) cells
same,luciferase activity (PSMB6 promoter-reporter),[4],dose dependent increase in luciferase activity
same,inhibition at 2 µM,[5],80 to 90%
same,mRNA levels of PSM genes after MG132,[6]; Nrf1−/− MEFs,severely blunted in their ability to upregulate PSM genes
same,mRNA levels of PSM genes after MG132,[6]; Nrf2−/− MEFs,induced mRNA levels of PSM genes
same,mRNA levels of PSM genes after MG132,[6]; WT MEFs,induced mRNA levels of PSM genes
same,luciferase activation (3×PSMA4-ARE-Luc) in cells overexpressing Flag-Nrf1,"[7]; LNCaP with Flag-Nrf1, plus MG132",further enhanced
same,"luciferase activity (3×PSMA4-mutARE-Luc, AREs mutated)","[7]; LNCaP, mutated AREs",neither MG132 nor overexpressed Flag-Nrf1 induced the synthetic promoter construct
same,luciferase activity (3×PSMA4-ARE-Luc),"[7]; LNCaP, versus DMSO-treated / vector control, MG132 12 hrs",an increase in luciferase activity was observed when compared to DMSO-treated control
same,mRNA levels of PSM genes,[2],robustly induce mRNA levels of several PSM genes
CC(=O)NC(CCc1ccccc1)C(=O)NC(CC(C)C)C(=O)NC(Cc1ccccc1)C(=O)NC(CC(C)C)C(=O)C1(C)CO1 (centres unmarked) [YU101],time taken to recover half of the inhibited activity,[8]; Nrf1−/− MEFs,15.96 ± 5.49 h
same,time taken to recover half of the inhibited activity,[8]; WT MEFs,6.92 ± 1.64 h
same,level of cleaved caspase-3,[9],elicited an enhanced level of cleaved caspase-3
same,mRNA levels of PSM genes,[2],robustly induce mRNA levels of several PSM genes
COC(=O)C[C@H](NC(=O)[C@H](C)NC(=O)[C@@H](NC(=O)OCc1ccccc1)C(C)C)C(=O)CF [Z-VAD-FMK] (Cbz-Val-Ala-Asp(OMe)-CH2F),effect of co-treatment on sensitization to YU101 killing,[10],this effect was blunted
